This note sets out measurements from patent US9878985B2, “Benzocyclobutane(thio) carboxamides” (BAYER CROPSCIENCE AKTIENGESELLSCHAFT, priority 2013, dated 2018).

Each structure is given as a SMILES string.

The first data set in a line: Log P by HPLC on reversed phase columns (EEC directive 79/831 Annex V.A8). Type of data set: physicochemical. The note with it: Table 1; method [a]: LC-UV, acidic range, 0.1% formic acid in water and acetonitrile. How it is done: Measurement of Log P values was performed according to EEC directive 79/831 Annex V.A8 by HPLC (High Performance Liquid Chromatography) on reversed phase columns with the following method: • [^a] Log P value is determined by measurement of LC-UV, in an acidic range, with 0.1% formic acid in water and acetonitrile as eluent (linear gradient from 10% acetonitrile to 95% acetonitrile). Calibration was done with straight-chain alkan2-ones (with 3 to 16 carbon atoms) with known Log P values (measurement of Log P values using retention times with linear interpolation between successive alkanones). Lambda-max-values were determined using UV-spectra from 200 nm to 400 nm and the peak values of the chromatographic signals.
As to `Cn1cc(C(=O)Nc2cccc3c2CC3c2ccccc2)c(C(F)F)n1` (centres unmarked) [Example I-01], the LogP was 3.20^[a].
As for `Cn1nc(C(F)F)c(C(=O)Nc2cccc3c2CC32CCCC2)c1F` [Example I-02], the LogP was 3.90[a].
Consider `Cn1cc(C(=O)Nc2cccc3c2CC32CCCC2)c(C(F)F)n1` [Example I-03], for which the LogP was 3.59^[a].
The same measure, in the same setting: with `CCC1(CC)Cc2c(NC(=O)c3c(C(F)F)nn(C)c3Cl)cccc21` [Example I-04] the figure was 4.36^[a]; with `CCC1(C)Cc2c(NC(=O)c3cccnc3C(F)F)cccc21` (centres unmarked) [Example I-05], 3.31^[a]; with `CC(C)C1Cc2c(NC(=O)c3cccnc3C(F)F)cccc21` (centres unmarked) [Example I-06], 3.39^[a].
As for `Cn1nc(C(F)F)c(C(=O)Nc2cccc3c2CC32CCCCC2)c1Cl` [Example I-07], the LogP is 4.56^[a].
The same measure, in the same setting: then `Cn1cc(C(=O)Nc2cccc3c2CC32CCCCC2)c(C(F)F)n1` [Example I-08], with 3.94^[a]; and `O=C(Nc1cccc2c1CC21CCCC1)c1cccnc1C(F)F` [Example I-09], with 3.46^[a].
The same measure, in the same setting: then `Cc1nn(C)c(F)c1C(=O)Nc1cccc2c1CC21CCCCC1` [Example I-10], with 3.87^[a]; and `Cn1nc(C(F)F)c(C(=O)Nc2cccc3c2CC3c2ccccc2)c1Cl` (centres unmarked) [Example I-11], with 3.71^[a].
`CCC1(C)Cc2c(NC(=O)c3c(C(F)F)nn(C)c3Cl)cccc21` (centres unmarked) [Example I-12]: the LogP was 3.96^[a].
Take `CCC1(C)Cc2c(NC(=O)c3cn(C)nc3C(F)F)cccc21` (centres unmarked) [Example I-13]: the LogP was 3.44^[a].
On the same count and under the same terms, with `CCC1(CC)Cc2c(NC(=O)c3c(C(F)F)nn(C)c3F)cccc21` [Example I-14] the figure was 4.11^[a]; with `CC1Cc2c(NC(=O)c3c(C(F)F)nn(C)c3F)cccc21` (centres unmarked) [Example I-15], 3.02^[a]; with `CC(C)C1Cc2c(NC(=O)c3c(C(F)F)nn(C)c3Cl)cccc21` (centres unmarked) [Example I-16], 4.06^[a].
As to `O=C(Nc1cccc2c1CC21CCCCC1)c1cccnc1C(F)F` [Example I-17], the LogP is 3.80^[a].
`Cn1nc(C(F)F)c(C(=O)Nc2cccc3c2CC32CCCCC2)c1F` [Example I-18]: the LogP was 4.31^[a].
Same read-out and setting: then `O=C(Nc1cccc2c1CC2c1ccccc1)c1cccnc1C(F)F` (centres unmarked) [Example I-19], with 3.06^[a]; and `CC(C)C1Cc2c(NC(=O)c3cn(C)nc3C(F)F)cccc21` (centres unmarked) [Example I-20], with 3.50^[a]; and `Cn1nc(C(F)F)c(C(=O)Nc2cccc3c2CC32CCCC2)c1Cl` [Example I-21], with 4.14^[a].

The same data set, now with this note: Table 2 (amines III-a); method [a]: LC-UV, acidic range, 0.1% formic acid in water and acetonitrile.
For `Nc1cccc2c1CC21CCCC1` [III-a-1], the LogP is 2.03^[a].
Still for that read-out and setting: then `CCC1(CC)Cc2c(N)cccc21` [III-a-2], with 2.32^[a]; and `CC1Cc2c(N)cccc21` (centres unmarked) [III-a-3], with 0.87^[a].
Same read-out and setting: with `CC(C)C1Cc2c(N)cccc21` (centres unmarked) [III-a-4] the figure was 1.90^[a].
For the compound `CC1(C)Cc2c(N)cccc21` [III-a-5], the LogP was 1.36^[a].
Still for that read-out and setting: then `CCC1(C)Cc2c(N)cccc21` (centres unmarked) [III-a-6], with 1.82^[a]; and `Nc1cccc2c1CC21CCCCC1` [III-a-7], with 2.37^[a]; and `Nc1cccc2c1CC2c1ccccc1` (centres unmarked) [III-a-8], with 2.20^[a].
